Patent publication US10501456B2, “Therapeutic agents for the treatment of HBV infection” (Newave Pharmaceutical Inc., priority 2016, dated 2019)
Structures can show the parent of a compound that is named as a salt.

Experiments:
extracellular HBV DNA = assay: HBV DNA assay (real-time qPCR/TaqMan, HepG2.2.15 cells); type: cell-based; conditions: for EC50: Hepatitis B virus, 144 h, six days, supernatant HBV DNA copy number, read-out: EC50 (reduction in HBV DNA levels)
Protocol: The assay employs real-time qPCR (TaqMan) to directly measure extracellular HBV DNA copy number. HepG2.2.15 cells were plated in 96-well microtiter plates. Only the interior wells were utilized to reduce “edge effects” observed during cell culture, the exterior wells were filled with complete medium to help minimize sample evaporation. On the following day, the HepG2.2.15 cells were washed and the medium was replaced with complete medium containing various concentrations of a test compound in triplicate. 3TC was used as the positive control, while media alone was added to cells as a negative control (virus control, VC). Three days later, the culture medium was replaced with fresh medium containing the appropriately diluted drug. Six days following the initial administration of the test compound, the cell culture supernatant was collected, treated with pronase and then used in a real-time qPCR/TaqMan assay to determine HBV DNA copy numbers. TDF (tenofovir disoproxil fumarate) is used as a positive control reference. Antiviral activity was calculated from the reduction in HBV DNA levels (IC50).

HepG2.2.15 cells = assay: Compound cytotoxicity assay (CellTiter-Glo); type: cell-based; conditions: compared with Compound 203 in WO2015113990
Protocol: (§1) Compounds are diluted with DMSO in 3-fold, 11-point scheme: top conc. of test compound is 30 mM. Add 0.25 μL titrated compounds with Echo 550 to 384-well cytotoxicity assay plates. Add 50 μl HepG2.2.15 cells to each well (4,000 cells per well). The final top conc. is 150 μM after cell addition. For solvent control well (0% effect, ZPE), 0.25 μL DMSO is added (final DMSO conc. is 0.5%). Incubate for 4 days in 37⊏ C, 5% CO2 incubator. After
(§2) 4 day incubation compound cytotoxicity is measured by Promega CellTiter-Glo reagents, briefly: • Equilibrate the Celltiter-Glo reagent to room temperature • Equilibrate the cytotoxicity plates to RT for 20 minutes. • Add 50 μl of CellTiter-Glo Reagent to each well. • Shake 2 minutes on a shaker. • Incubate at room temperature in dark for 10 minutes. • Read plate on Envision Plate reader (0.1 sec integration time/well)
(§3) Such assays, carried out with a range of doses of test compounds, allow the determination of the cellular IC50 of the compounds of the present invention.

[1] = Compound cytotoxicity assay (CellTiter-Glo); type: cell-based; conditions: human; HepG2.2.15 cells, 4 day incubation, top conc. 150 μM
Protocol: as §1, §2, §3

hERG = hERG (Homo sapiens, UniProt Q12809); assay: hERG assay (automated patch-clamp); type: biochemical; conditions: for IC10 (10% inhibitory concentration, hERG tail current): automated patch-clamp
Source text: The human ether-a-go-go related gene (hERG) encodes the inward rectifying voltage gated potassium channel in the heart (IKr) which is involved in cardiac repolarization. Inhibition of the hERG current causes QT interval prolongation resulting in potentially fatal ventricular tachyarrhythmia called Torsade de Pointes. A number of drugs have been withdrawn from late stage clinical trials due to these cardiotoxic effects, therefore it is important to identify inhibitors early in drug discovery.
The degree of inhibition (%) was obtained by measuring the tail current amplitude, which is induced by a one second test pulse to −40 mV after a two second pulse to +20 mV, before and after drug incubation (the difference current was normalized to control and multiplied by 100 to obtain the percent of inhibition). Concentration (log) response curves were fitted to a logistic equation (three parameters assuming complete block of the current at very high test compound concentrations) to generate estimates of the 10% inhibitory concentration (IC10). The concentration-response relationship of each compound was constructed from the percentage reductions of current amplitude by sequential concentrations.

Rat PK study = type: in vivo, female Sprague-Dawley rats; conditions: for AUC(0-t) / Cmax / bioavailability / half-life: female, Sprague-Dawley, plasma, oral dosing; for half-life: read-out: t½ (converted)
Protocol: The pharmacokinetics of compounds were evaluated in female Sprague-Dawley rats via Intravenous and Oral Administration. The iv dose was administered as a slow bolus in the Jugular vein, and oral doses were administered by gavage. The fomulaltion for IV dosing is 20% DMSO and 60% PEG 400 in water, and the PO formulation (suspension) is 1% MC, 0.4% Kolliphor EL in water. The PK time point for the IV arm is 5, 15, 30 min, 1, 2, 4, 6, 8, 12, 24 hours post dose, and for PO arm is 15, 30 min, 1, 2, 4, 6, 8, 12, 24 hours post dose. Approximately 0.2 mL blood will be collected at each time point. Blood of each sample will be transferred into plastic micro centrifuge tubes containing EDTA-K2 and collect plasma within 15 min by centrifugation at 4000 g for 5 minutes in a 4° C. centrifuge. Plasma samples will be stored in polypropylene tubes. The samples will be stored in a freezer at −75±15° C. prior to analysis. Concentrations of compounds in the plasma samples will be analyzed using a LC-MS/MS method. WinNonlin (Phoenix™, version 6.1) or other similar software will be used for pharmacokinetic calculations. The following pharmacokinetic parameters will be calculated, whenever possible from the plasma concentration versus time data: IV administration: C0, CL, Vd, T1/2, AUCinf, AUClast, MRT, Number of Points for Regression; PO administration: Cmax, Tmax, T1/2, AUCinf, AUClast, F %, Number of Points for Regression. The pharmacokinetic data will be described using descriptive statistics such as mean, standard deviation. Additional pharmacokinetic or statistical analysis may be performed at the discretion of the contributing scientist, and will be documented in the data summary

hERG, sequence (Q12809 whole entry): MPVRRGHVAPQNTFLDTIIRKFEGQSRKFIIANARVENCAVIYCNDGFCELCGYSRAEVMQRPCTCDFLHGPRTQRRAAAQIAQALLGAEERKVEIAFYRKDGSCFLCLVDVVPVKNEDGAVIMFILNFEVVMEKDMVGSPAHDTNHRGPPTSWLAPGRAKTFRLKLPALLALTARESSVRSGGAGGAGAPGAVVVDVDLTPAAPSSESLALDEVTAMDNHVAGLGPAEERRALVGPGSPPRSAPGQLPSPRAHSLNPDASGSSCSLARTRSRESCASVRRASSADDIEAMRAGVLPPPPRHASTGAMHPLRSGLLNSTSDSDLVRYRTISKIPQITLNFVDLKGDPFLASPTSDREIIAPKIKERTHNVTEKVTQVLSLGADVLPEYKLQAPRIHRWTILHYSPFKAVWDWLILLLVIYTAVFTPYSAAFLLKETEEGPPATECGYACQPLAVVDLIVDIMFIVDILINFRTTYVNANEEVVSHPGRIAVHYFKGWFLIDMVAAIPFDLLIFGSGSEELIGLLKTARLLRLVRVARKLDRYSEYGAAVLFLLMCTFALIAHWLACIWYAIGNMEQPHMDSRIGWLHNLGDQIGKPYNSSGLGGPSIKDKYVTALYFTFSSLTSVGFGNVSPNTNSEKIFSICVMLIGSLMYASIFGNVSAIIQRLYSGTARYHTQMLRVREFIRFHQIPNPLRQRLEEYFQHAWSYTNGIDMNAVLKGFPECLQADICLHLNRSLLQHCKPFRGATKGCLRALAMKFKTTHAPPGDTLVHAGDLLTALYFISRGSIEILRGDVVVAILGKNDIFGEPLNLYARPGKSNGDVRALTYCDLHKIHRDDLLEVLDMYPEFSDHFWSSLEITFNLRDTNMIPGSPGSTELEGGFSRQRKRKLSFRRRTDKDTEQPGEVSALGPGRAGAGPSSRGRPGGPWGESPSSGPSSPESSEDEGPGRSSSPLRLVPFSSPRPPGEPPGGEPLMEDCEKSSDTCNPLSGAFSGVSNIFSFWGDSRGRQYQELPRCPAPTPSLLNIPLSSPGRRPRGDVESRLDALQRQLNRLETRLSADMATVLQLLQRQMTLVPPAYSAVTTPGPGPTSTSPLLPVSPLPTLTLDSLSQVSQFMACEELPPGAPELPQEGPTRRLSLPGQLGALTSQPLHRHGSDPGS

SMILES | EC50 (extracellular HBV DNA) [nM] | IC50 at 4 days [1] [µM] | IC10 (10% inhibitory concentration, hERG tail current) (hERG) [µM] | AUC(0-t) (Rat PK study; 20 mg/kg) [ng·h/mL] | Cmax (Rat PK study; 20 mg/kg) [ng/mL] | bioavailability (Rat PK study; 20 mg/kg) [%] | half-life (Rat PK study; 20 mg/kg) [min] | AUC(0-t) (Rat PK study; 10 mg/kg) [ng·h/mL] | bioavailability (Rat PK study; 10 mg/kg) [%] | further results
CC(C)OC(=O)OCOP(=O)(CO[C@H](C)Cn1cnc2c(N)ncnc21)OCOC(=O)OC(C)C [Tenofovir Disoproxil Fumarate, tenofovir disoproxil fumarate, reference compound] | 29.3 |  |  |  |  |  |  |  |  | 
COCCCOc1cc2c(cc1Cl)-c1c(F)c(=O)c(C(=O)O)cn1[C@H](C(C)(C)C)C2 (single isomer, unassigned) [Example 2A, (+)-6-(tert-butyl)-10-chloro-1-fluoro-9-(3-methoxypropoxy)-2-oxo-6,7-dihydro-2H-pyrido[2,1-a]isoquinoline-3-carboxylic acid] | < 1 | > 150 | 10 | 39600 | 7550 | 58.6 | 268 |  |  | cytotoxicity (in words) (HepG2.2.15 cells): less cytotoxicity; cardiac toxicity (in words) (hERG; hERG, compared with Compound 203 in WO2015113990): less cardiac toxicity; anti-HBV potency (in words) (extracellular HBV DNA; HBV DNA): highly potent; oral PK profile (in words) (Rat PK study; oral dosing of 20 mg/kg, compared with Compound 203 in WO2015113990): better oral PK profile
COCCCOc1cc2c(cc1Cl)-c1cc(=O)c(C(=O)O)cn1[C@H](C(C)(C)C)C2 [Compound 203 in WO2015113990, reference compound] | < 1 | 120 | 1 | 16700 | 2470 | 40 | 224 |  |  | 
COCCCOc1cc2c(cc1OC)-c1c(F)c(=O)c(C(=O)O)cn1[C@H](C(C)(C)C)C2 [Example 13] |  |  |  |  |  |  |  | 5840 | 24.1 | 
[2H]C([2H])([2H])Oc1cc2c(cc1OCCCOC)C[C@@H](C(C)(C)C)n1cc(C(=O)O)c(=O)c(F)c1-2 [Example 14, (S)-6-(tert-butyl)-1-fluoro-10-(methoxy-d3)-9-(3-methoxypropoxy)-2-oxo-6,7-dihydro-2H-pyrido[2,1-a]isoquinoline-3-carboxylic acid] |  |  |  |  |  |  |  | 9050 | 61.1 | oral PK profile (in words) (Rat PK study; oral dosing of 10 mg/kg, compared with Example 13): much better oral PK profile
